Measurements as given in PMC5587309, “Involvement of arginine 878 together with Ca^2+ in mouse aminopeptidase A substrate specificity for N-terminal acidic amino-acid residues” (PLoS ONE, 2017).
Substitutions are numbered along the chain they refer to.

Assays:
Assay type in all cases: biochemical
wild-type mAPA [1] = target: T1, wild-type mAPA (Mus musculus, UniProt P16406); experiment: Inhibition of GluNA hydrolysis by purified recombinant wild-type His-mAPA
T1 construct: made in house; host or cells: stably transfected CHO-K1 cells
T1 sequence (P16406 1-945): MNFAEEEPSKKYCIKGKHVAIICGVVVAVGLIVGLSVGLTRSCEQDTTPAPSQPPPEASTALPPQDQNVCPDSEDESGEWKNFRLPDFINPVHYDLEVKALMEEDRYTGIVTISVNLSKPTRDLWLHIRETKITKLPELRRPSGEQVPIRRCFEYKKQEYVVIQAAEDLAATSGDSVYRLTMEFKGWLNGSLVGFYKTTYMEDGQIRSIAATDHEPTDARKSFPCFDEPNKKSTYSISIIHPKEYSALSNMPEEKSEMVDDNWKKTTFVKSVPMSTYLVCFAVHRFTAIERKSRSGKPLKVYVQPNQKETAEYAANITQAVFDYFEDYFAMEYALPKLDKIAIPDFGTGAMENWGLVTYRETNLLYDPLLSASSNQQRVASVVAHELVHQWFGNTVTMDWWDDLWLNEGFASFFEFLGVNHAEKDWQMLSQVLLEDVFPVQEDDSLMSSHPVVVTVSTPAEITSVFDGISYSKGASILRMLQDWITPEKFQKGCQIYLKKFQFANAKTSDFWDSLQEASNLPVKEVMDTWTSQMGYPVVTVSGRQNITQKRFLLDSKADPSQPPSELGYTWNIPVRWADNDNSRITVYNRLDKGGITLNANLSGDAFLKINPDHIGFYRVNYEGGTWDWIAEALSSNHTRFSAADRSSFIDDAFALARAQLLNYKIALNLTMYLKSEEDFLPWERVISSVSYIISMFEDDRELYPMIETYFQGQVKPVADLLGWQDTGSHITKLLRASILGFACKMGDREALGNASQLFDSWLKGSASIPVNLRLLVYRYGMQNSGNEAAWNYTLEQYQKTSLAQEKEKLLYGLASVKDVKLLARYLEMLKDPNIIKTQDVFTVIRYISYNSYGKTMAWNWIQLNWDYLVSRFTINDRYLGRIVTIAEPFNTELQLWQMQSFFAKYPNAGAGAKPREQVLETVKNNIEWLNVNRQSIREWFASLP
Experimental: (§1) Enzyme assays were carried out for wild-type and mutated His-mAPAs in 50 mM Tris-HCl buffer, pH 7.4, with or without 4 mM CaCl2, by monitoring the rate of hydrolysis of GluNA, as previously described. The sensitivity to Ca^2+ of purified wild-type and mutated His-mAPA was determinated by incubating 0.5 mM GluNA with 0 to 4 mM CaCl2 in a final volume of 100 μl of 50 mM Tris-HCl buffer, pH 7.4. All the assays were performed in black 96-well plates (solid black 96-well flat-bottomed non-treated plates with no lid; Corning Costar). All of the enzymatic studies were performed such that substrate hydrolysis rates were maintained below 10% (initial rate conditions). The kinetic curves were monitored by following the increase in fluorescence at 460 nm (lex = 330 nm), induced by the release of the β-naphthylamide fluorogenic part of the substrate by APA. Fluorescence signals were monitored by counting photons with a spectrophotometer (Fusion universal microplate analyser; Packard) equipped with a temperature control device and a plate shaker. The kinetic parameters (Km and kcat) were determined from Michaelis-Menten plots, using GraphPad Prism 4 software (GraphPad) with a final concentration of substrate (GluNA) from 0.005 to 5 mM with or without 4 mM Ca^2+. For evaluation of the substrate specificity of APA with or without 4 mM Ca^2+, the rate of hydrolysis of […] additional substrates, α-L-aspartate-β-naphthylamide (AspNA), α-L-alanine-β-naphthylamide (AlaNA) and basic α-L-lysine-β-naphthylamide (LysNA), was determined under the same experimental conditions as described for GluNA. The sensitivity of wild-type and mutated His-mAPAs to inhibition by [(3S)-3-amino-4-sulfanyl-butane-1-sulfonic acid] (EC33), glutamate-thiol (GluSH), glutamate-phosphonic-acid (GluPO3H2), methionine-thiol (MetSH) and lysine-thiol (LysSH) was determined by establishing dose-dependent inhibition curves for a final GluNA concentration of 0.5 mM in the presence or absence of 4 mM CaCl2. These compounds being linear competitive inhibitors, their Ki were calculated from the formula Ki = IC50/ (1+ [GluNA]/Km).

R878A mutated mAPA = target: T2, R878A mutated mAPA (Mus musculus, UniProt P16406, R878A); experiment: Inhibition of GluNA hydrolysis by purified recombinant R878A His-mAPA
T2 construct: made in house; host or cells: stably transfected CHO-K1 cells
T2 sequence (P16406 1-945 R878A): T1 sequence (P16406 1-945) with R878A
Experimental: as §1

R878K mutated mAPA = target: T3, R878K mutated mAPA (Mus musculus, UniProt P16406, R878K); experiment: Inhibition of GluNA hydrolysis by purified recombinant R878K His-mAPA
T3 construct: made in house; host or cells: stably transfected CHO-K1 cells
T3 sequence (P16406 1-945 R878K): T1 sequence (P16406 1-945) with R878K
Experimental: as §1

wild-type mAPA [2] = target: T1, wild-type mAPA; experiment: Ca2+ activation profile of GluNA hydrolysis by wild-type His-mAPA; details: 0.5 mM GluNA
Experimental: Enzyme assays were carried out for wild-type and mutated […] 50 mM Tris-HCl buffer, pH 7.4, with or without 4 mM CaCl2, by monitoring the rate of hydrolysis of GluNA, as previously described. The sensitivity to Ca^2+ of purified wild-type and mutated His-mAPA was determinated by incubating 0.5 mM GluNA with 0 to 4 mM CaCl2 in a final volume of 100 μl of 50 mM Tris-HCl buffer, pH 7.4. All the assays were performed in black 96-well plates (solid black 96-well flat-bottomed non-treated plates with no lid; Corning Costar). All of the enzymatic studies were performed such that substrate hydrolysis rates were maintained below 10% (initial rate conditions). […] Fluorescence signals were monitored by counting photons with a spectrophotometer (Fusion universal microplate analyser; Packard) equipped with a temperature control device and a plate shaker. […] Fig 3 Effects of the divalent cation Ca^2+ on recombinant wild-type and mutated mouse APAs enzymatic activities. Purified mAPAs (2 μg) were incubated at 37°C for 30 min with 0.5 mM GluNA with various concentrations of CaCl2 in a final volume of 100 μl of 50 mM Tris-HCl buffer (pH7.4). (A), APA enzymatic activities expressed as a percentage of maximal hydrolysis velocity obtained with 4 mM Ca^2+ for each purification vs log of Ca^2+ concentration. (B), Effect of increasing Ca^2+ concentration on APA enzymatic activities.

## N[C@@H](CCC(=O)O)P(=O)(O)O [GluPO3H2, (4R)-4-amino-4-phosphonobutanoic acid]
wild-type mAPA [1]
  Ki: 0.074 ± 0.0077 µM
R878A mutated mAPA
  Ki: 6.5 ± 0.24 µM
R878A mutated mAPA; R878A mAPA, presence of Ca2+
  times less efficiently inhibited than wild-type: 87 times
R878K mutated mAPA
  Ki: 0.619 ± 0.021 µM
R878K mutated mAPA; R878K mAPA, presence of Ca2+
  times less efficiently inhibited than wild-type: 8 times

## [Ca+2].[Cl-].[Cl-] [Ca^2+]
wild-type mAPA [2]; 0 to 4 mM CaCl2, read-out: EC50 of activation of enzymatic activity
  EC50: 22 ± 5 µM
wild-type mAPA [2]; Ca2+ concentration raised from 0 to 4 mM
  increase of enzymatic activity: 7 fold
